We go through 3 compounds from patent US9161936B2, “Laquinimod for treatment of GABA mediated disorders” (TEVA PHARMACEUTICAL INDUSTRIES, LTD., priority 2012, dated 2015).

The pEC50 is the negative decadic logarithm of the EC50, by convention in mol/L.

Data set [1] deals with cannabinoid CB1 receptor (Mus musculus, UniProt P47746). The experiment in a line: Effect of HU210 on sIPSC frequency in striatal neurons (CB1 sensitivity of GABA synapses). As to conditions: for sIPSC frequency respect to pre-drug values: HU210 1 μM.
Description: Recordings were performed between 25 and 35 dpi. Mice were killed by cervical dislocation under halothane anaesthesia, and corticostriatal coronal slices (200 μm) were prepared from fresh tissue blocks of the brain with the use of a vibratome (Centonze et al., 2007, 2009; Rossi et al., 2010a,b). A single slice was then transferred to a recording chamber and submerged in a continuously flowing artificial CSF (ACSF) (34° C., 2-3 ml/min) gassed with 95% O2-5% CO2. The composition of the control ACSF was (in mM): 126 NaCl, 2.5 KCl, 1.2 MgCl2, 1.2 NaH2PO4, 2.4 CaCl2, 11 Glucose, 25 NaHCO3. Recording pipettes were advanced towards individual striatal cells in the slice under positive pressure and visual control (WinVision 2000, Delta Sistemi, Italy) and, on contact, tight GΩ seals were made by applying negative pressure. The membrane patch was then ruptured by suction and membrane current and potential monitored using an Axopatch 1D patch clamp amplifier (Axon Instruments, Foster City, Calif., USA). Whole-cell access resistances measured in voltage clamp were in the range of 5-20 MΩ. Whole-cell patch clamp recordings were made with borosilicate glass pipettes (1.8 mm o.d.; 2-3 MΩ), in voltage-clamp mode, at the holding potential (HP) of −80 mV. […] Conversely, to detect spontaneous GABAAmediated inhibitory postsynaptic currents (sIPSCs), intraelectrode solution had the following composition (mM): CsCl (110), K+-gluconate (30), ethylene glycol-bis(β-aminoethyl ether)-N,N,N′,N′-tetra-acetic acid (EGTA; 1.1), HEPES (10), CaCl2 (0.1), Mg-ATP (4), Na-GTP (0.3). MK-801 (30 μM) and CNQX (10 μM) were added to the external solution to block, respectively, NMDA and nonNMDA glutamate receptors. Synaptic events were stored by using P-CLAMP (Axon Instruments) and analyzed off line on a personal computer with Mini Analysis 5.1 (Synaptosoft, Leonia, N.J., USA) software. The detection threshold of spontaneous IPSCs and EPSCs was set at twice the baseline noise. The fact that no false events would be identified was confirmed by visual inspection for each experiment. Offline analysis was performed on spontaneous and miniature synaptic events recorded during fixed time epochs (3-5 min, 3-6 samplings), sampled every 5 or 10 minutes. […] For kinetic analysis, events with peak amplitude between 10 and 50 pA were grouped, aligned by half-rise time, normalized by peak amplitude. In each cell, the events were averaged to obtain rise times, decay times, and half widths (Centonze et al., 2009; Rossi et al., 2010a,b). […]
For data presented as mean±SE, n indicates the number of cells. One to six cells per animal were recorded. […] Multiple comparisons were analysed by one-way ANOVA followed by Tukey's HSD test. Comparisons between two groups were analysed by paired or unpaired Student's t-test. […]
In data set [2] the test system is glutamate-mediated sEPSCs in control neurons. Nature of the data set: Bath application of LQ on corticostriatal slices of wild type mice, sEPSCs. Format: cell-based, mouse.
The conditions of data set [3]: background statement; cited from earlier work.
For data set [4], the system named is spinal cord of EAE mice. Nature of the data set: Histological evaluation of spinal cord of EAE mice. Format: in vivo, mouse. Here is the method:
At least 5 mice per group were transcardially perfused through the left cardiac ventricle with saline, plus EDTA 0.5 M for 5-10 min followed by fixation with cold 4% paraformaldehyde (PFA) (Sigma, St Louis, Mo.) in 0.1 M phosphate buffer (pH 7.4). Subsequently, spinal cords and brains were carefully dissected out and post-fixed in 4% PFA for 3-4 h and processed for paraffin embedding. The quantification of neurological damage was performed on 5 μm paraffin CNS sections obtained from HC, LQ-EAE mice, and untreated-EAE mice. Three different staining were used to detect inflammatory infiltrates (H&E), demyelination (Luxol fast blue) and axonal damage (Bielshowsky). Immunohistochemistry for CD3 (pan-T cell marker, Serotec Ltd, Oxford, UK), and BS-I isolectin B4 (biotinilated from Sigma, St Louis, Mo.) was performed to investigate T cells and macrophages within the inflammatory cellular infiltrates, respectively. […] Neuropathological findings were quantified on an average of 18-20 complete cross-sections of spinal cord per mouse taken at 8 different levels of the spinal cord. The number of perivascular inflammatory infiltrates were calculated and expressed as the numbers of inflammatory infiltrates per mm^2, demyelinated areas and axonal loss were expressed as percentage of damaged area per mm2. The number of T cells and macrophages lining within the subarachnoid space or infiltrating the CNS parenchyma was calculated and expressed as the number of cells per mm2. An Olympus microscope for the acquisitions of pictures was used. Statistical analysis was performed using the unpaired Student's t-test.

The subject of data set [5] is aEAE model. As to conditions: shown in U.S. Pat. No. 6,077,851; cited from earlier work.
For data set [6] the following is noted: systemically administered (Brück et al., 2011); cited from earlier work.
For data set [7], the system named is EAE mice. Nature of the data set: EAE induction and disease evaluation, preventive daily s.c. LQ. Format: in vivo, mouse. The conditions noted are these: for mice that developed the disease (incidence): 0-26 d.p.i., 15 mice; for maximum disease score: score 0-5. Here is the method:
Female C57BL/6 mice at 6-8 weeks of age were purchased from Charles River (Calco, Milan, Italy) and housed in pathogen-free conditions. All procedures involving animals were performed according to the guidelines of the San Raffaele Scientific Institute Institutional Animal Care and Use Committee.
EAE was induced by immunization with 3 subcutaneous injection of 100 μl each, containing a total of 200 μg of myelin oligodendrocyte glycoprotein (MOG) peptide 35-55 (Multiple Peptide System) in incomplete Freund's adjuvant and 8 mg/ml of Mycobacterium tuberculosis (strain H37Ra; Difco). Pertussis toxin (Sigma) (500 ng) was injected on the day of the immunization and again two days later. Body weight and clinical score (0=healthy; 1=limp tail; 2=ataxia and/or paresis of hindlimbs; 3=paralysis of hindlimbs and/or paresis of forelimbs; 4=tetraparalysis; 5=moribund or death) were recorded daily.
EAE mice were treated once daily by subcutaneous (s.c.) injection of LQ (supplied by Teva Pharmaceutical Industries, Netanya, Israel) (thereafter referred as LQ-EAE). LQ was administered at different doses (from 1 to 25 mg/kg) starting the same day of immunization up to 26 days post immunization (d.p.i.). Sham treated EAE mice (thereafter referred as untreated-EAE) and healthy control mice (thereafter referred as HC) were used as controls. Statistical analysis was performed using the unpaired Student's t-test.

Data set [8] concerns glutamate-mediated sEPSCs in striatal neurons. The experiment in a line: Whole-cell patch clamp of sEPSCs in striatal neurons of LQ-treated EAE mice. Format: in vivo, mouse. The conditions noted are these: LQ-EAE mice 25 mg/kg.
For data set [9] the following is noted: mouse, in vivo, sc, 25 mg/kg.
Data set [10] relates to GABAA-mediated sIPSCs in control neurons. Nature of the data set: Bath application of LQ on corticostriatal slices of wild type mice, sIPSCs. Format: cell-based, mouse.
In data set [11] the test system is GABAA-mediated sIPSCs in striatal neurons. The experiment in a line: Whole-cell patch clamp of sIPSCs in striatal neurons of LQ-treated EAE mice. Format: in vivo, mouse. As to conditions: LQ-EAE mice 25 mg/kg, n=20. In general terms: Patch clamp records ionic current or voltage across a cell membrane.
[12] abbreviates: LQ 1 μM bath application, control neurons.
Setting [13] is: LQ 1 μM, 12 minutes, control neurons.
Where [14] appears, read: LQ-EAE mice vs untreated-EAE mice.
[15] abbreviates: s.c. LQ vs untreated-EAE mice, spinal cord sections.

Each structure is given as a SMILES string. pEC50: −log10 of the molar value.

Chain of cannabinoid CB1 receptor (P47746 whole entry): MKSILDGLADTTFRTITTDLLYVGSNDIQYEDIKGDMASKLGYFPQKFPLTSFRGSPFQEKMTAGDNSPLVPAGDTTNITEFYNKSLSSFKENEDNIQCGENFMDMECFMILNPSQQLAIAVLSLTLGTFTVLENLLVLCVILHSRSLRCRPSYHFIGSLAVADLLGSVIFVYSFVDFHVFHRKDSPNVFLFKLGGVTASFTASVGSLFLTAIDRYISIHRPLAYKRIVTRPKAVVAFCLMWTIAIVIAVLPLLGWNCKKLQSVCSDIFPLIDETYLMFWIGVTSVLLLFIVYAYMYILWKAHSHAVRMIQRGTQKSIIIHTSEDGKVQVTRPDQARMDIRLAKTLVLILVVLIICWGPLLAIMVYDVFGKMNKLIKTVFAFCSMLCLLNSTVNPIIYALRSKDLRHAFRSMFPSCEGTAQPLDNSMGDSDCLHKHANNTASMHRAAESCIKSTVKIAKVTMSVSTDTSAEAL

Consider `CCCCCCC(C)(C)c1cc(O)c2c(c1)OC(C)(C)[C@@H]1CC=C(CO)C[C@@H]21` [HU210], for which the “sIPSC frequency respect to pre-drug values” amounted to 76±3% in [1] (10 min, control slices, n=8); 75±3% in data set [1] (striatal neurons from LQ-EAE mice (25 mg/kg), n=10); 101±3% in [1] (striatal neurons from untreated EAE mice, n=10).
In the case of `N#Cc1cc2[nH]c(=O)c(=O)[nH]c2cc1[N+](=O)[O-]` [CNQX, reference compound], in data set [2] (CNQX 10 μM, n=5), the “blockade of sEPSCs recorded in the presence of LQ” value is reported as “fully blocked”.
In the case of `CCN(C(=O)c1c(O)c2c(Cl)cccc2n(C)c1=O)c1ccccc1` [LQ, N-ethyl-N-phenyl-1,2-dihydro-4-hydroxy-5-chloro-1-methyl-2-oxoquinoline-3-carboxamide], the sEPSC amplitude result is recorded as “failed to alter” in [2] (setting [12]); “reducing” in data set [2] (LQ 10-30 μM bath application, control neurons, n=10, p<0.01); 12.2±1.1 pA in [8] (untreated-EAE 11.1±0.8, HC 12.0±1.0). Also, the sEPSC frequency result is recorded as “failed to alter” in [2] (setting [12]) and 3.4±0.4 Hz in data set [8] (n=20, untreated-EAE 4.0±0.2, HC 2.7±0.2). Also, the “sEPSC decay time compared to pre-drug values” in data set [2] (setting [13]) came to 101±2%. Besides, the “sEPSC rise time compared to pre-drug values” in [2] (setting [13]) is on record as 99±1%. Further, the negative logarithm of the EC50 (pEC50) in [2] (Mus musculus, Neuron, dose-response curve, bath application, control neurons, read-out: EC50 of LQ-induced decrease of sEPSC amplitude) was 5.35; in data set [10] (Mus musculus, Neuron, dose-response curve, bath application, read-out: EC50 of LQ-induced increase of sIPSC frequency), 5.37. For the same compound, in data set [2] (highest concentration of LQ, n=7, p<0.05), the “sEPSC frequency respect to pre-drug values” came to 83±2.7%. The oral bioavailability result in data set [3] was “high”. In data set [4] (setting [14]), the “CD3+ T cells” value is “significant reduction”. For the same compound, the “IB4+ macrophages” value in data set [4] (setting [14]) was “significant reduction”. Moreover, in [4] (setting [15]), the “axonal damage (percentage over total section area)” value is “significantly reduces”. The “inflammation (perivascular infiltrates per section)” value in data set [4] (setting [15]) is listed as “significantly reduces”. Besides, in data set [4] (setting [15]), the “myelin loss (demyelination, percentage over total section area)” value was “significantly reduces”. The “efficacy in the acute experimental autoimmune encephalomyelitis (aEAE) model” value in [5] is “effective”. In addition, in data set [6], the “crossing of the blood brain barrier” value was “able to cross the blood brain barrier”. Moreover, the “mice that developed the disease (incidence)” value in data set [7] (1 mg/kg LQ s.c. daily, untreated-EAE 15/15) is 86.6%; in data set [7] (5 mg/kg LQ s.c. daily), 80%; in [7] (25 mg/kg LQ s.c. daily) it was 40%. The maximum disease score turned out to be 3.5 in data set [7] (1 mg/kg LQ s.c. daily, sham 3.5); 3 in data set [7] (5 mg/kg LQ s.c. daily); 1.5 in data set [7] (25 mg/kg LQ s.c. daily). For the same compound, the “cumulative score (0-26 dpi)” value in [7] (1 mg/kg LQ s.c. daily, untreated EAE 27.5) was determined as 27.3; in data set [7] (5 mg/kg LQ s.c. daily), 21.5; in data set [7] (25 mg/kg LQ s.c. daily), 21.3. For the same compound, the mean disease onset was 11.9 (±2.47) in data set [7] (1 mg/kg LQ s.c. daily, untreated-EAE 11.9 (±2.33)); 14.6 (±4.29) in data set [7] (5 mg/kg LQ s.c. daily); 13.5 (±2.43) in data set [7] (printed "the mg/kg LQ-EAE mice" (dose figure missing), s.c. daily). In data set [7] (preventive treatment 0-26 dpi, daily s.c. 1-25 mg/kg, dose-dependent), the “suppression of EAE” value is “significantly suppresses”. In data set [1] (prophylactic LQ 25 mg/kg in EAE mice), the “effect of CB1 receptor agonist HU210 on sIPSCs after LQ treatment” value is reported as “completely restored”. Further, the sEPSC decay time in data set [8] (25-35 dpi, n=20, untreated-EAE 5.4±0.4, HC 3.4±0.2) worked out at 4.2 ± 0.3 ms. The sEPSC half-width in [8] (n=20, untreated-EAE 6.4±0.4, HC 4.0±0.3) was determined as 5.0 ± 0.3 ms. For the same compound, the sEPSC rise time in [8] (untreated-EAE 1.05±0.1, HC 1.03±0.1) stood at 0.98 ± 0.1 ms. The CNS concentration in data set [9] was 0.3 to 1 µM. Also, the sIPSC amplitude result in [10] (LQ 1 μM bath application) is reported as “failed to alter”; in [11] (untreated-EAE 20±1.5, HC 32±1.3) it was 29±1.1 pA. The sIPSC frequency result in data set [10] (LQ 1 μM bath application) was “failed to alter”; in [10] (LQ 10-30 μM bath application, n=8, p<0.01), “significantly increased”; in data set [11] (untreated-EAE 0.8±0.1, HC 1.7±0.1), 2.0±0.2 Hz. In addition, in data set [10] (LQ 1 μM, 12 minutes), the “sIPSC decay time compared to pre-drug values” was 98±3%. In data set [10] (LQ 1 μM, 12 minutes), the “sIPSC rise time compared to pre-drug values” is 101±2%.
